{"source": "paper PMC5569068", "about": "“Potential inhibitors designed against NDM-1 type metallo-β-lactamases: an attempt to enhance efficacies of antibiotics against multi-drug-resistant bacteria” (Scientific Reports, 2017)", "key": {"[1]": {"tested_on": "E. coli DH5α transformed with recombinant NDM-1 (pQE-2- NDM-1)", "assay": "microbe, parasite or virus in culture", "format": "cell-based", "conditions": "for Minimum inhibitory concentration: (pQE-2- NDM-1) DH5α; for MIC: Escherichia coli, read-out: Minimum inhibitory concentration; for MIC of antibiotic when combined with each of the five molecules: bla NDM-1 clone, combined with M1, M17, M21, M61 or M75", "experimental": "(§1) The MIC was determined for E. coli DH5α cells, E. coli DH5α cells with vector and E. coli DH5α cells with bla NDM-1 carrying vectors. […] We next assayed the activities of these drugs in combination with novel screened molecules.\n(§2) The MICs of four antibiotics were calculated (Table 4)."}, "[2]": {"tested_on": "original DH5α (with null vector) (pQE-2- Original)", "assay": "microbe, parasite or virus in culture", "format": "cell-based, E. coli", "conditions": "(pQE-2- Original) DH5α; for MIC: Escherichia coli, read-out: Minimum inhibitory concentration", "experimental": "as §1, §2"}}, "data": [{"compound": "CO[C@@]1(NC(=O)Cc2cccs2)C(=O)N2C(C(=O)O)=C(COC(N)=O)CS[C@@H]21", "note": "[Cefoxitin]", "values": [{"measurement": "Minimum inhibitory concentration", "setting": "[1]", "result": 16.0, "unit": "µg/mL"}, {"measurement": "MIC", "setting": "[1]", "result": 16, "unit": "µg/mL"}, {"measurement": "MIC of antibiotic when combined with each of the five molecules", "setting": "[1]", "result": 8, "unit": "µg/mL"}, {"measurement": "MIC", "setting": "[2]", "result": 2, "unit": "µg/mL"}]}, {"compound": "CC(C)(O/N=C(\\C(=O)N[C@@H]1C(=O)N2C(C(=O)[O-])=C(C[n+]3ccccc3)CS[C@H]12)c1csc(N)n1)C(=O)O", "note": "[Ceftazidime]", "values": [{"measurement": "Minimum inhibitory concentration", "setting": "[1]", "result": 8.00, "unit": "µg/mL"}, {"measurement": "MIC", "setting": "[1]", "result": 8, "unit": "µg/mL"}, {"measurement": "MIC of antibiotic when combined with each of the five molecules", "setting": "[1]", "result": 4, "unit": "µg/mL"}, {"measurement": "MIC", "setting": "[2]", "result": 0.25, "unit": "µg/mL"}]}, {"compound": "CO/N=C(\\C(=O)N[C@@H]1C(=O)N2C(C(=O)O)=C(COC(C)=O)CS[C@H]12)c1csc(N)n1", "note": "[Cephotaxime]", "values": [{"measurement": "Minimum inhibitory concentration", "setting": "[1]", "result": 512, "unit": "µg/mL"}, {"measurement": "Minimum inhibitory concentration", "setting": "[2]", "result": 0.25, "unit": "µg/mL"}]}, {"compound": "C[C@@H](O)[C@H]1C(=O)N2C(C(=O)O)=C(SCCN=CN)C[C@H]12", "note": "[Imipenem]", "values": [{"measurement": "Minimum inhibitory concentration", "setting": "[1]", "result": 2.00, "unit": "µg/mL"}, {"measurement": "MIC", "setting": "[1]", "result": 2, "unit": "µg/mL"}, {"measurement": "MIC of antibiotic when combined with each of the five molecules", "setting": "[1]", "result": 1, "unit": "µg/mL"}, {"measurement": "MIC", "setting": "[2]", "result": 0.5, "unit": "µg/mL"}]}, {"compound": "C[C@@H](O)[C@H]1C(=O)N2C(C(=O)O)=C(S[C@@H]3CN[C@H](C(=O)N(C)C)C3)[C@H](C)[C@H]12", "note": "[Meropenem]", "values": [{"measurement": "Minimum inhibitory concentration", "setting": "[1]", "result": 2.00, "unit": "µg/mL"}, {"measurement": "MIC", "setting": "[1]", "result": 2, "unit": "µg/mL"}, {"measurement": "MIC of antibiotic when combined with each of the five molecules", "setting": "[1]", "result": 1, "unit": "µg/mL"}, {"measurement": "MIC", "setting": "[2]", "result": 0.5, "unit": "µg/mL"}]}]}
